Measurements reported in PMC3772825, “Development of Novel ^123I-Labeled Pyridyl Benzofuran Derivatives for SPECT Imaging of β-Amyloid Plaques in Alzheimer’s Disease” (PLoS ONE, 2013).
Read-outs that look alike come from different tables or passages of the source.

Columns and labels:
Aβ(1–42) aggregates = target: T1, Aβ(1–42) aggregates (Homo sapiens, UniProt P05067); experiment: In vitro binding assay with Aβ(1–42) aggregates, competition with [125I]IMPY; details: mean ± SEM of three independent determinations; Cheng-Prusoff
T1 construct: Aβ(1–42) was purchased from the Peptide Institute (Osaka, Japan); purchased Peptide Institute (Osaka, Japan)
T1 sequence (P05067 672-713 limits assumed): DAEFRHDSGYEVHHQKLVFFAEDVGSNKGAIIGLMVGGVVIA
Protocol: Aggregation was carried out by gently dissolving the peptide (0.25 mg/mL) in a buffer solution (pH 7.4) containing 10 mM sodium phosphate and 1 mM EDTA. […] The mixture was then filtered through Whatman GF/B filters using a Brandel M-24 cell harvester, and the radioactivity of the filters containing the bound ^125I ligand was measured in a γ counter. Values for the half-maximal inhibitory concentration (IC50) were determined from displacement curves of three independent experiments using GraphPad Prism 5.0, and those for the inhibition constant (Ki) were calculated using the Cheng-Prusoff equation [26]: […]

[1] = Biodistribution in normal mice; format: in vivo, ddY mice; details: for time of peak brain uptake: postinjection
Protocol: While under anesthesia with 2% isoflurane, ddY mice were injected directly into a tail vein with 100 µL of 10% EtOH containing ^125I-labeled pyridyl benzofuran derivatives (37 kBq). The mice (male, n = 5 for each time point) were sacrificed at 2, 10, 30, and 60 min postinjection. The organs of interest were removed and weighed, and radioactivity was measured with an automatic gamma counter (COBRAII; Packard). Percentage dose per organ was calculated by comparing the tissue counts to suitably diluted aliquots of the injected material. The %dose/g of samples was calculated by comparing the sample counts with the count of the diluted initial dose.

[2] = design: method as in PMID 17210465; details: ref [31]; cited from earlier work
Aβ plaques [3] = experiment: In vitro autoradiography using human AD brain sections; format: binding; details: postmortem human AD brain sections, 1 h at room temperature
Protocol: Postmortem brain tissues from an anonymous autopsy-confirmed case of AD (person) were obtained from the Graduate School of Medicine, Kyoto University. Six-micrometer-thick serial sections of paraffin-embedded blocks were used for in vitro autoradiography. The sections were incubated with ^125I-labeled tracers (444 kBq/50 µL) for 1 h at room temperature, then dipped in saturated Li2CO3 in 40% EtOH (two 2-min washes), washed with 40% EtOH (one 2-min wash), and rinsed with water for 30 s. After drying, the ^125I-labeled sections were exposed to a BAS imaging plate (Fuji Film) overnight. Autoradiographic images were obtained using a BAS5000 scanner system (Fuji Film). After autoradiographic examination, the same sections were immunostained using an amyloid β-protein immunohistochemical staining kit (Wako Pure Chemical Industries, Ltd.).

Aβ plaques [4] = target: T2, Aβ plaques (Homo sapiens, UniProt P05067); experiment: Ex vivo autoradiography of transgenic mouse brain; details: brains of Tg2576 mice after SPECT/CT; not in the wild-type control
T2 sequence (P05067 672-711 limits assumed): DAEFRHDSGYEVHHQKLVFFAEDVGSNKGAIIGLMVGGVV
Text: The animals were killed by decapitation after the SPECT analysis. Brains were immediately removed and frozen in a dry ice/hexane bath. Sections of 20 µm were cut and exposed to a BAS imaging plate (Fuji Film, Tokyo, Japan) overnight. Ex vivo film autoradiograms were thus obtained. After autoradiographic examination, the same sections were stained by thioflavin-S to confirm the presence of Aβ plaques. For staining with thioflavin-S, sections were immersed in a 0.125% thioflavin-S solution containing 50% EtOH for 5 min and washed in 50% EtOH. After drying, the sections were examined using a microscope (Eclipse 80i; Nikon) equipped with a B-2A filter set (excitation, 450–490 nm; diachronic mirror, 505 nm; long-pass filter, 520 nm).

[5] = In vitro stability in mouse plasma; format: in vitro ADME; details: incubation 1 h at 37°C, RP-HPLC
Protocol: [^125I]8 (11 kBq, […]) was added to the mouse plasma ([…]), and the plasma samples were incubated at 37°C for 1 h. After incubation, plasma samples were mixed with equal volumes of acetonitrile followed by centrifugation at 4,500 rpm for 10 min to remove the denatured proteins. The supernatant was filtrated using a 0.45 µm filter (Millipore; Billerica, MA, USA). Then, the filtrate was analyzed by RP-HPLC.

Aβ plaques [6] = target: T2, Aβ plaques; experiment: Small-animal SPECT/CT in Tg2576 and wild-type mice; format: in vivo, Tg2576 transgenic mice; details: average ± SD
Protocol: Dynamic SPECT scans were performed on a dedicated small-animal SPECT scanner (FX3300, Gamma Medica-Ideas). Tg2576 transgenic mice (28 months, female, n = 3) and wild-type mice (28 months, female, n = 3) were used as an Alzheimer’s model and an age-matched control, respectively. Briefly, the animals were initially anesthetized with 2% isoflurane. When fully anesthetized, an animal was placed on the scanner bed, with a nose cone used to maintain anesthesia with 2% isoflurane throughout the experiment. [^123I]8 (20.5–26.5 MBq) in 10% aqueous EtOH solution containing 0.1% Tween80 was injected into a tail vein. Dynamic data were acquired over a period of 60 min after the injection, followed by the acquisition of CT data over a period of 5 min. The SPECT data were reconstructed using a 3-dimensional ordered subsets expectation maximization (3D OSEM) algorithm (5 iteration, 8 subsets). The SPECT scan time was sorted by a 30-s time frame in each 1-min interval (total, 60 frames for a total scan time of 60 min). […] For statistical analyses, regions of interest (ROIs) were manually placed over the frontal cortex (FR) and cerebellum (CE) on the summed SPECT images of [^123I]8 in Tg2576 (n = 3) and wild-type (n = 3) mice. Identification of anatomical structures was guided by the stereotaxic mouse brain atlas. […]

[7] = In vivo stability in normal mice (intact form in plasma by RP-HPLC); design: species or system ddY mice; details: 30 min postinjection, i.v.
Protocol: [^125I]8 (0.11 MBq, 100 µL) was injected into the tail vein of ddY mice. The mice were sacrificed at 2, 10, and 30 min after the injection (male, n = 3 for each time point). The blood samples were centrifuged at 3,500 rpm for 10 min to separate plasma. Plasma samples were mixed with equal volumes of acetonitrile followed by centrifugation at 4,500 rpm for 10 min to remove the denatured proteins. The supernatant was filtrated using 0.45 µm filter (Millipore; Billerica, MA, USA). Then, the filtrate was analyzed by RP-HPLC.

CN(C)c1ccc(-c2cc3cc(I)ccc3o2)cn1 [Compound 9, 5-(5-Iodobenzofuran-2-yl)-N,N-dimethylpyridin-2-amine]
Ki (Aβ(1–42) aggregates): 2.36 ± 0.53 nM
time of peak brain uptake ([1]; i.v.): 10 min

CNc1ccc(/C=C/c2ccc(OCCOCCOCC[18F])nc2)cc1 [[^18F]AV-45, (E)-4-(2-(6-(2-(2-(2-[^18F]fluoroethoxy)ethoxy)ethoxy)pyridin-3-yl)vinyl)-N-methylaniline]
brain2min/brain60 min ratio [2]: 3.8

Nc1ccc(-c2cc3cc(I)ccc3o2)cn1 [Compound 7, 5-(5-Iodobenzofuran-2-yl)pyridin-2-amine]
Ki (Aβ(1–42) aggregates): 10.3 ± 1.48 nM
in vitro autoradiography of AD brain sections (Aβ plaques [3]): nonspecific binding in white matter
time of peak brain uptake ([1]; i.v.): 10 min
brain2min/brain60 min ratio ([1]; washout from the brain): 1.30

CNc1ccc(-c2cc3cc(I)ccc3o2)cn1 [Compound 8, 5-(5-Iodobenzofuran-2-yl)-N-methylpyridin-2-amine]
ex vivo autoradiography, labeling of Aβ plaques (Aβ plaques [4]): extensive labeling of Aβ plaques
Ki (Aβ(1–42) aggregates): 2.94 ± 0.22 nM
radioactivity existing as intact form in mouse plasma [5]: 77.4%
mean FR/CE ratio (frontal cortex to cerebellum), SPECT (Aβ plaques [6]; Tg2576 mice (n = 3)): 1.34±0.07
mean FR/CE ratio (frontal cortex to cerebellum), SPECT (Aβ plaques [6]; wild-type mice (n = 3)): 1.01±0.03
percent of the intact form in plasma after injection [7]: 20.7%
brain radioactivity at 60 min postinjection ([1]; i.v., 60 min): 1.30 %ID/g
time of peak brain uptake ([1]; i.v.): 2 min
